A short description of test [1]: Ability to inhibit [3H]-SCH- 23390 binding to Dopamine receptor D1 of canine striatal membranes.
Assay in test [2]: as above
This is another data set of the same source.

The compound `CN1CCc2cc(I)c(O)cc2[C@@H](c2ccc(N=[N+]=[N-])cc2)C1` displayed a Ki in test [1] of 0.028 µM.
On to `CN1CCc2cc(I)c(O)cc2[C@H](c2ccc(N=[N+]=[N-])cc2)C1`, for which binding in test [2] was characterised by a dissociation constant (Kd) of 0.00028 µM. In other words, the sub-nanomolar range.

One may read the Ki as the equilibrium dissociation constant of an inhibitor or competing ligand from its target. Low readings indicate tighter binding, high ones weaker binding. Usually Kd stands for the equilibrium constant for the complex coming apart. Low values mean a tighter complex, high ones a looser complex.

Values taken from BindingDB's records for doi:10.1021/jm00164a009 (Research Biochemicals, 1990).
